≈ marks a conversion by molar mass, not a printed value. Read-outs that look alike come from different tables or passages of the source.
Experiments:
Assay type in all cases: cell-based
[1] = test system: Acinetobacter baumannii SR24396; assay: Minimum Inhibitory Concentration (MIC), agar plate incubation, Japan Society for Chemotherapy standard method
Experimental: (§1) The antimicrobial activity in vitro of the present compound (I) was determined.
(§2) Measurement of Minimum Inhibitory Concentration (MIC, μg/ml) was conducted according to the standard method of the Japan Society for Chemotherapy and the amount of bacteria for inoculation was 1000 cfu/spot, and sensitive disc medium was used as the test medium, and conducted using agar plate incubation.
(§3) In the tables, the unit of the values of inhibitory activity is μg/ml.

[2] = test system: Klebsiella pneumoniae ATCC 700603; assay: as above
Experimental: as §1, §2, §3

[3] = test system: Pseudomonas aeruginosa SR24; assay: as above
Experimental: as §1, §2, §3

[4] = test system: Pseudomonas aeruginosa SR27060; assay: as above
Experimental: as §1, §2, §3

[5] = test system: Stenotrophomonas maltophilia SR21970; assay: Minimum Inhibitory Concentration (MIC), agar plate incubation, CLSI method
Experimental: as §1
Measurement of Minimum Inhibitory Concentration (MIC, μg/ml) was conducted according to the CLSI (Clinical and Laboratory Standards Institute) and the amount of bacteria for inoculation was 10000 cfu/spot, and Mueller-Hinton agar medium was used as the test medium, and conducted using agar plate incubation.
as §3

[6] = Acinetobacter baumannii SR24396, no enzyme, 1000 cfu/spot, sensitive disc medium, read-out: Minimum Inhibitory Concentration (MIC)
[7] = ATCC700603, Klebsiella pneumoniae ATCC 700603, SHV-18, ESBL producer strain, 1000 cfu/spot, sensitive disc medium, read-out: Minimum Inhibitory Concentration (MIC)
[8] = Pseudomonas aeruginosa SR24, no enzyme, ceftazidime sensitive strain, 1000 cfu/spot, sensitive disc medium, read-out: Minimum Inhibitory Concentration (MIC)
[9] = Pseudomonas aeruginosa SR27060, IMP-1, MBL producer strain (carbapenem resistant strain), 1000 cfu/spot, sensitive disc medium, read-out: Minimum Inhibitory Concentration (MIC)
[10] = Stenotrophomonas maltophilia SR21970, L-1, MBL producer strain (carbapenem resistant strain), 10000 cfu/spot, Mueller-Hinton agar medium, read-out: Minimum Inhibitory Concentration (MIC)
[11] = Acinetobacter baumannii SR24396, no enzyme, 1000 cfu/spot, sensitive disc medium
[12] = Klebsiella pneumoniae ATCC 700603, SHV-18, ESBL producer strain, 1000 cfu/spot, sensitive disc medium
[13] = Pseudomonas aeruginosa SR24, no enzyme, ceftazidime sensitive strain, 1000 cfu/spot, sensitive disc medium
[14] = Pseudomonas aeruginosa SR27060, IMP-1, MBL producer strain (carbapenem resistant strain), 1000 cfu/spot, sensitive disc medium
[15] = Stenotrophomonas maltophilia SR21970, L-1, MBL producer strain (carbapenem resistant strain), 10000 cfu/spot, Mueller-Hinton agar medium
[16] = Acinetobacter baumannii, SR24396, read-out: Minimum Inhibitory Concentration (MIC)
[17] = Klebsiella pneumoniae, ATCC700603, read-out: Minimum Inhibitory Concentration (MIC)
[18] = Pseudomonas aeruginosa, SR24, read-out: Minimum Inhibitory Concentration (MIC)
[19] = Pseudomonas aeruginosa, SR27060, read-out: Minimum Inhibitory Concentration (MIC)
[20] = Stenotrophomonas maltophilia, SR21970, read-out: Minimum Inhibitory Concentration (MIC)

| SMILES | MIC [1, 6] [µg/mL] | MIC [2, 7] [µg/mL] | MIC [3, 8] [µg/mL] | MIC [4, 9] [µg/mL] | MIC [5, 10] [µg/mL] | Minimum Inhibitory Concentration (MIC) [1, 11] [µg/mL] | Minimum Inhibitory Concentration (MIC) [2, 12] [µg/mL] | Minimum Inhibitory Concentration (MIC) [3, 13] [µg/mL] | Minimum Inhibitory Concentration (MIC) [4, 14] [µg/mL] | Minimum Inhibitory Concentration (MIC) [5, 15] [µg/mL] | other results |
| --- | --- | --- | --- | --- | --- | --- | --- | --- | --- | --- | --- |
| C[C@@H](O/N=C(\C(=O)N[C@@H]1C(=O)N2C(C(=O)O)=C(C[N@@+]34CC[C@@H](C3)N(C(=O)c3ccc(O)c(O)c3Cl)CC4)CS[C@H]12)c1csc(N)n1)C(=O)[O-] [II-25] | 0.063 (≈ 0.0856 µM) | 0.5 (≈ 0.679 µM) | 0.125 (≈ 0.17 µM) | 1 (≈ 1.36 µM) | 1 (≈ 1.36 µM) |  |  |  |  |  |  |
| Nc1nc(C(=NOC(CC(=O)[O-])C(=O)[O-])C(=O)NC2C(=O)N3C(C(=O)[O-])=C(C[N+]45CCCC4CN(C(=O)c4ccc(O)c(O)c4F)CC5)CSC23)cs1.[Na+].[Na+] (stereo not shown) [II-28] |  |  |  |  |  | 0.125 | 0.25 | 0.125 | 1 | 0.5 |  |
| CC(C)(O/N=C(\C(=O)N[C@@H]1C(=O)N2C(C(=O)O)=C(C[N+]3(CCNC(=O)c4ccc(O)c(O)c4F)CCCC3)CS[C@H]12)c1csc(N)n1)C(=O)[O-] [II-29] | 0.25 (≈ 0.34 µM) | 0.125 (≈ 0.17 µM) | 0.125 (≈ 0.17 µM) | 0.5 (≈ 0.68 µM) | 0.5 (≈ 0.68 µM) |  |  |  |  |  |  |
| CC(C)(O/N=C(\C(=O)N[C@@H]1C(=O)N2C(C(=O)O)=C(C[N+]3(C)[C@@H]4CC[C@H]3C[C@@H](NC(=O)c3ccc(O)c(O)c3F)C4)CS[C@H]12)c1csc(N)n1)C(=O)[O-] (stereo partly shown) [II-36] | 0.25 (≈ 0.328 µM) | 0.5 (≈ 0.656 µM) | 0.25 (≈ 0.328 µM) | 0.5 (≈ 0.656 µM) | 1 (≈ 1.31 µM) |  |  |  |  |  |  |
| C[N+]1(CC2=C(C(=O)[O-])N3C(=O)[C@@H](NC(=O)/C(=N\O[C@@H](CC(=O)[O-])C(=O)[O-])c4csc(N)n4)[C@H]3SC2)[C@@H]2CC[C@H]1C[C@@H](NC(=O)c1ccc(O)c(O)c1F)C2.[Na+].[Na+] (stereo partly shown) [II-37] |  |  |  |  |  | 0.25 | 0.5 | 0.25 | 0.25 | 0.5 |  |
| CC(C)(O/N=C(\C(=O)N[C@@H]1C(=O)N2C(C(=O)O)=C(C[N+]3(C)[C@@H]4CC[C@H]3C[C@@H](NC(=O)c3cc(O)c(O)c(F)c3)C4)CS[C@H]12)c1csc(N)n1)C(=O)[O-] (stereo partly shown) [II-47] | 0.25 (≈ 0.328 µM) | 0.25 (≈ 0.328 µM) | 0.063 (≈ 0.0827 µM) | 0.25 (≈ 0.328 µM) | 0.5 (≈ 0.656 µM) |  |  |  |  |  |  |
| C[N+]1(CC2=C(C(=O)[O-])N3C(=O)[C@@H](NC(=O)/C(=N\O[C@@H](CC(=O)[O-])C(=O)[O-])c4csc(N)n4)[C@H]3SC2)[C@@H]2CC[C@H]1C[C@@H](NC(=O)c1cc(O)c(O)c(F)c1)C2.[Na+].[Na+] (stereo partly shown) [II-48] |  |  |  |  |  | 0.125 | 0.25 | 0.063 | 0.25 | 0.5 |  |
| CC(C)(O/N=C(\C(=O)N[C@@H]1C(=O)N2C(C(=O)O)=C(C[N+]3(CCNC(=O)c4cc(O)c(O)c(Cl)c4)CCCC3)CS[C@H]12)c1csc(N)n1)C(=O)[O-] [II-49] | 0.125 (≈ 0.166 µM) | 0.125 (≈ 0.166 µM) | 0.125 (≈ 0.166 µM) | 0.5 (≈ 0.665 µM) | 0.5 (≈ 0.665 µM) |  |  |  |  |  |  |
| CC(C)(O/N=C(\C(=O)N[C@@H]1C(=O)N2C(C(=O)O)=C(C[N+]3(C)[C@@H]4CC[C@H]3C[C@@H](NC(=O)c3cc(O)c(O)c(Cl)c3)C4)CS[C@H]12)c1csc(N)n1)C(=O)[O-] (stereo partly shown) [II-50] |  |  |  |  |  |  |  |  |  |  | MIC [1, 16]: 0.25 µg/mL (≈ 0.321 µM); MIC [2, 17]: 0.25 µg/mL (≈ 0.321 µM); MIC [3, 18]: 0.125 µg/mL (≈ 0.161 µM); MIC [4, 19]: 0.5 µg/mL (≈ 0.642 µM); MIC [5, 20]: 0.5 µg/mL (≈ 0.642 µM) |
| C[N+]1(CC2=C(C(=O)[O-])N3C(=O)C(NC(=O)C(=NOC(CC(=O)O)C(=O)[O-])c4csc(N)n4)C3SC2)C2CCC1CC(NC(=O)c1cc(O)c(O)c(Cl)c1)C2.[Na+] (stereo not shown) [II-51] |  |  |  |  |  | 0.125 | 0.25 | 0.125 | 0.25 | 0.25 |  |
| Nc1nc(/C(=N/O[C@@H](CC(=O)[O-])C(=O)[O-])C(=O)N[C@@H]2C(=O)N3C(C(=O)[O-])=C(C[N+]45CCC[C@H]4CN(C(=O)c4cc(O)c(O)c(Cl)c4)CC5)CS[C@H]23)cs1.[Na+].[Na+] (stereo partly shown) [II-57] |  |  |  |  |  | 0.063 | 0.25 | 0.063 | 0.5 | 0.5 |  |
| Nc1nc(C(=NOC(CC(=O)[O-])C(=O)[O-])C(=O)NC2C(=O)N3C(C(=O)[O-])=C(C[N+]45CCC(CNC(=O)c6ccc(O)c(O)c6Cl)(CC4)CC5)CSC23)cs1.[Na+].[Na+] (stereo not shown) [II-58] |  |  |  |  |  | 0.125 | 0.5 | 0.25 | 0.5 | 0.5 |  |
| CC[C@H](O/N=C(\C(=O)N[C@@H]1C(=O)N2C(C(=O)O)=C(C[N+]34CCC(CNC(=O)c5ccc(O)c(O)c5Cl)(CC3)CC4)CS[C@H]12)c1csc(N)n1)C(=O)[O-] [II-59] | 0.125 (≈ 0.161 µM) | 0.5 (≈ 0.642 µM) | 0.25 (≈ 0.321 µM) | 0.5 (≈ 0.642 µM) | 1 (≈ 1.28 µM) |  |  |  |  |  |  |
| CC(C)(O/N=C(\C(=O)N[C@@H]1C(=O)N2C(C(=O)O)=C(C[N+]3(C)[C@@H]4CC[C@H]3C[C@@H](NC(=O)c3ccc(O)c(O)c3Cl)C4)CS[C@H]12)c1nsc(N)n1)C(=O)[O-] (stereo partly shown) [II-63] | 0.125 (≈ 0.16 µM) | 1 (≈ 1.28 µM) | 0.063 (≈ 0.0808 µM) | 0.5 (≈ 0.642 µM) | 0.5 (≈ 0.642 µM) |  |  |  |  |  |  |
| CC(C)[C@H](O/N=C(\C(=O)N[C@@H]1C(=O)N2C(C(=O)O)=C(C[N@+]3(C)[C@@H]4CC[C@H]3C[C@@H](NC(=O)c3ccc(O)c(O)c3Cl)C4)CS[C@H]12)c1csc(N)n1)C(=O)[O-] [III-3] | 0.125 (≈ 0.158 µM) | 0.25 (≈ 0.316 µM) | 0.125 (≈ 0.158 µM) | 0.5 (≈ 0.631 µM) | 0.5 (≈ 0.631 µM) |  |  |  |  |  |  |
| CC(C)(O/N=C(\C(=O)N[C@@H]1C(=O)N2C(C(=O)O)=C(C[N+]34CCCC3(CNC(=O)c3ccc(O)c(O)c3Cl)CCC4)CS[C@H]12)c1csc(N)n1)C(=O)[O-] (stereo partly shown) [III-5] |  |  |  |  |  |  |  |  |  |  | MIC [1, 16]: 0.25 µg/mL (≈ 0.321 µM); MIC [2, 17]: 0.125 µg/mL (≈ 0.161 µM); MIC [3, 18]: 0.125 µg/mL (≈ 0.161 µM); MIC [4, 19]: 0.5 µg/mL (≈ 0.642 µM); MIC [5, 20]: 0.25 µg/mL (≈ 0.321 µM) |
| C[N+]1(CC2=C(C(=O)[O-])N3C(=O)C(NC(=O)C(=NOC(CC(=O)O)C(=O)[O-])c4csc(N)n4)C3SC2)C2CCC1CC(NC(=O)c1ccc(O)c(O)c1C(F)(F)F)C2.[Na+] (stereo not shown) [III-14] |  |  |  |  |  | 0.125 | 0.5 | 0.25 | 0.5 | 0.25 |  |

Reference: patent publication US9145425B2, “Cephem compound having catechol group” (SHIONOGI & CO., LTD., priority 2010, dated 2015)
